Key:
[1] = 101 kPa, Liquid
[2] = xn = mol fraction of the nth substance listed; settings: 101 kPa, Liquid

CCC(=O)[O-].OCC[NH2+]CCO [bis(2-hydroxyethyl)ammonium propanoate]
[1]
Settings	mass density [kg/m3]	viscosity [mPa·s]
293.15 K	1142.7	740.28
303.15 K	1136.1	322.17
313.15 K	1129.2	157.97
323.15 K	1125.2	96.54

CCC(=O)[O-].OCC[NH2+]CCO [bis(2-hydroxyethyl)ammonium propanoate] + CCCO
[2]
Settings	mass density, 293.15 K [kg/m3]	mass density, 303.15 K [kg/m3]	mass density, 313.15 K [kg/m3]	mass density, 323.15 K [kg/m3]	viscosity, 293.15 K [mPa·s]	viscosity, 303.15 K [mPa·s]	viscosity, 313.15 K [mPa·s]	viscosity, 323.15 K [mPa·s]
x1 = 0.0585	846.5	839	831.3	823.1	31.6	15.37	6.146	3.897
x1 = 0.1031	875.3	867.9	860.4	852.6	53.29	21.15	9.633	6.039
x1 = 0.2292	942.2	935	927.7	920.9	120.07	47.98	21.6	13.44
x1 = 0.3021	973.6	966.5	959.3	952.9	161.5	66.19	29.62	18.46
x1 = 0.4017	1010.3	1003.3	996.2	990.3	221.9	91.87	41.98	26.24
x1 = 0.5009	1041.2	1034.3	1027.3	1021.9	288.32	119.16	56.4	35.31
x1 = 0.636	1076.2	1069.4	1062.5	1057.6	393.08	163.5	80.35	50.21
x1 = 0.7135	1093.1	1086.4	1079.5	1074.8	461.84	194.52	96.42	60.05
x1 = 0.8018	1110.2	1103.5	1096.5	1092.1	547.5	234.75	116.23	72
x1 = 0.8979	1126.6	1119.9	1113	1108.8	646.69	281.11	138.08	84.93
x1 = 0.9568	1136	1129.3	1122.4	1118.4	701.08	304.98	149.64	92.03
x1 = 1	1142.7	1136.1	1129.2	1125.2	740.28	322.17	157.97	96.54

CCC(=O)[O-].OCC[NH2+]CCO [bis(2-hydroxyethyl)ammonium propanoate] + CCO
[2]
Settings	mass density, 293.15 K [kg/m3]	mass density, 303.15 K [kg/m3]	mass density, 313.15 K [kg/m3]	mass density, 323.15 K [kg/m3]	viscosity, 293.15 K [mPa·s]	viscosity, 303.15 K [mPa·s]	viscosity, 313.15 K [mPa·s]	viscosity, 323.15 K [mPa·s]
x1 = 0.0536	842.7	834.4	826.6	818.5	28.36	14.2	5.271	3.309
x1 = 0.1087	887.2	879.2	871.7	864.2	55.19	21.36	9.602	5.974
x1 = 0.2052	947	939.4	932.2	925.5	105.81	41.43	18.6	11.54
x1 = 0.3168	997.5	990.1	983	977.1	167.85	68.6	30.49	18.98
x1 = 0.4238	1034.5	1027.3	1020.2	1014.8	231.31	95.16	43.46	27.2
x1 = 0.5084	1058.3	1051.2	1044.2	1039.1	284.44	116.45	54.87	34.45
x1 = 0.5946	1078.8	1071.8	1064.9	1060	343.18	140.21	68.08	42.81
x1 = 0.6965	1099.1	1092.3	1085.4	1080.8	428.04	177.51	88.08	55.22
x1 = 0.804	1116.8	1110	1103.1	1098.8	531.61	226.45	112.51	70.07
x1 = 0.8895	1128.8	1122	1115.1	1111	626.32	271.72	133.71	82.61
x1 = 0.9458	1136	1129.3	1122.4	1118.3	686.37	298.35	146.49	90.38
x1 = 1	1142.7	1136.1	1129.2	1125.2	740.28	322.17	157.97	96.54

CCC(=O)[O-].OCC[NH2+]CCO [bis(2-hydroxyethyl)ammonium propanoate] + CO
[2]
Settings	mass density, 293.15 K [kg/m3]	mass density, 303.15 K [kg/m3]	mass density, 313.15 K [kg/m3]	mass density, 323.15 K [kg/m3]	viscosity, 293.15 K [mPa·s]	viscosity, 303.15 K [mPa·s]	viscosity, 313.15 K [mPa·s]	viscosity, 323.15 K [mPa·s]
x1 = 0.0437	851.2	842.3	833.3	826.8	23.19	13.01	4.242	2.639
x1 = 0.1045	913.4	905.2	896.9	891.1	52.44	20.18	8.903	5.509
x1 = 0.2138	987.8	980.3	972.6	967.8	109.39	42.76	19	11.76
x1 = 0.2957	1024.6	1017.4	1010	1005.5	153.61	62.12	27.33	16.99
x1 = 0.4	1058.1	1051.2	1044	1039.7	210.82	86.11	38.58	24.16
x1 = 0.5038	1082.4	1075.6	1068.6	1064.6	269.65	109.07	50.82	32.04
x1 = 0.6125	1101.8	1095.2	1088.3	1084.5	337.06	135.36	65.92	41.76
x1 = 0.6981	1114	1107.6	1100.9	1097.1	399.51	162.04	80.81	51.21
x1 = 0.8026	1126.4	1120	1113.3	1109.7	496.91	208.61	104.49	65.82
x1 = 0.9121	1136.5	1130.1	1123.4	1119.7	636.96	276.64	135.75	84.16
x1 = 0.9587	1140	1133.5	1126.8	1123	692.41	301.08	147.67	91.46
x1 = 1	1142.7	1136.1	1129.2	1125.2	740.28	322.17	157.97	96.54

CCO [ethanol]
[1]
Settings	mass density [kg/m3]	viscosity [mPa·s]
293.15 K	789.3	1.18
303.15 K	780.7	1.019
313.15 K	772.5	0.8424
323.15 K	763.6	0.7081

CCO [ethanol] + CCC(=O)[O-].OCC[NH2+]CCO
[2], x2 = 0
Settings	mass density [kg/m3]	viscosity [mPa·s]
293.15 K	789.3	1.18
303.15 K	780.7	1.019
313.15 K	772.5	0.8424
323.15 K	763.6	0.7081

CO [methanol]
[1]
Settings	mass density [kg/m3]	viscosity [mPa·s]
293.15 K	791.2	0.6075
303.15 K	781.8	0.5535
313.15 K	772.3	0.501
323.15 K	765.1	0.4601

CO [methanol] + CCC(=O)[O-].OCC[NH2+]CCO
[2], x2 = 0
Settings	mass density [kg/m3]	viscosity [mPa·s]
293.15 K	791.2	0.6075
303.15 K	781.8	0.5535
313.15 K	772.3	0.501
323.15 K	765.1	0.4601

CCCO [propan-1-ol]
[1]
Settings	mass density [kg/m3]	viscosity [mPa·s]
293.15 K	803.2	2.141
303.15 K	795.5	1.788
313.15 K	787.6	1.391
323.15 K	778.7	1.098

CCCO [propan-1-ol] + CCC(=O)[O-].OCC[NH2+]CCO
[2], x2 = 0
Settings	mass density [kg/m3]	viscosity [mPa·s]
293.15 K	803.2	2.141
303.15 K	795.5	1.788
313.15 K	787.6	1.391
323.15 K	778.7	1.098

From the NIST ThermoML archive (doi:10.1021/je100848r)
